From US7709532B2, “Methods for improving bioavailability of a renin inhibitor” (Novartis AG, priority 2004, dated 2010)

What was measured:
in vitro = settings: human, Caco-2
Description: (§1) Alternatively, the in vitro transporter affinity of a drug substance can be determined and approximated by a Caco-2 cell assay as described, e.g., in Camenisch et al., Pharm. Act. Helv. 71, 309-327 (1996), or as illustrated herein in the Examples. The identification of the transporter protein and the efficacy of a compound to inhibit the efflux system involved may as well be determined in the Caco-2 cell assay.
(§2) Caco-2 cell monolayers grown on PET filters for 21-25 days are used for the transport experiments. The flux of compounds across Caco-2 cell monolayers grown on PET filters as well as across PET filters alone without Caco-2 cells is determined as follows: Prior to the transport experiment, the culture medium in the acceptor compartment (0.2 mL for apical and 1.0 mL for basolateral sides) is replaced with acceptor solution (HBSS, when relevant containing the inhibitor of interest) preincubated at 37° C. To start the experiment, the medium in the donor compartment (0.35 mL for apical and 1.15 mL for basolateral sides) is replaced with donor solution (compound in HBSS, when relevant containing inhibitor of interest) pre-incubated at 37° C. Aliquots of 150 μL are removed from the donor and the acceptor side after about 1 and 120 min. Transport experiments in both apical-to-basolateral and basolateral-to-apical directions are performed in triplicate at 37° C. in an incubator without shaking.
(§3) The suitability of Caco-2 cells for transport experiments is examined by measuring the permeability of [^3H]-mannitol at >0.1 μM and [^3H]-propranolol at >0.1 μM from apical to basolateral sides for 120 min in a total of 6 representative cell monolayers (3 for each compound) within the same batch of cells.
(§4) Radioactive samples are analyzed by liquid scintillation counting. All other non-radiolabeled samples are kept frozen at −20° C. until analysis by liquid chromatography/tandem mass spectrometry (LC-MS/MS).
(§5) Transport values of the compounds tested are determined using the following equation (Artursson et al., Biochem. Biophys. Res. Comm. 175: 880-885, 1991):
(§6) Papp values are presented as means ± standard deviations of the transport experiments performed (n=3). The statistical significance in differences between any two given data sets is examined by t-test. The probability level for assignment of significance of difference is p<0.025. All statistical analyses were performed using Microsoft EXCEL 5.0c.

[1] = In situ bile-duct cannulated rat experiment (biliary clearance); settings: for effect on 14C concentration in plasma: i.v. bolus of inhibitor (PSC833 10 mg/kg, probenecid 50 mg/kg) during constant infusion of [14C]-SPP100 hemifumarate
Description: The effect in situ of co-administration of an efflux protein inhibitor, e.g., a MDR1 inhibitor, on the biliary excretion of a renin inhibitor may be investigated by comparing the amount of compound excreted into bile, in the presence and the absence of an efflux protein inhibitor.
The animals that may be used are, e.g., male albino HAN:WIST rats, 4 to 5 animals in each treatment group.
For all treatment groups blood samples are collected at 0.5, 1, 1.33, 1.67, 2, 2.33, 2.67, 3 h after treatment and blood is immediately processed to plasma. Bile is collected for the time frame of 1 to 3 h in intervals of 20 min.
• for total radioactivity in all samples: LSC; LOQ 3.4 μg/L for plasma and bile; and • for detection of metabolite pattern in selected pools of samples: HPLC with radioactivity detection.

Caco-2 cell monolayers = experiment: in vitro; settings: human, Caco-2, 120 min
Description: as §1, §2, §3, §4, §5, §6

[2] = In vivo bioavailability experiment, single oral administration; parameters: species or system rat; settings: for Cmax / Tmax: male, HAN:WIST, rat, plasma, po
Description: Similarly, the effect in vivo of co-administration of an efflux protein inhibitor, e.g., a MDR1 inhibitor, on the bioavailability of a renin inhibitor may be investigated by comparing the pharmacokinetic parameters, Cmax and AUCs, in the presence and the absence of an efflux protein inhibitor.
The animals that may be used are, e.g., male albino HAN:WIST rats, 5 animals in each treatment group.
Plasma is used for biochemical analysis.

[3] = test system: T1, COCCCOc1cc(C[C@@H](C[C@H](N)[C@@H](O)C[C@H](C(=O)NCC(C)(C)C(N)=O)C(C)C)C(C)C)ccc1OC; experiment: ATPase assay in membrane vesicles expressing high levels of MDR1; assay type: biochemical, human; settings: other: membrane vesicles expressing high levels of MDR1; pH 7.4; 37.0 °C
T1 construct: host or cells: Sf9 (Spodoptera frugiperda) membrane vesicles
Description: The efflux protein(s) involved in the drug efflux of a drug substance may be identified, and the corresponding kinetic parameters may be determined, i.e., Michaelis-Menten Constant and Maximal Drug Transport (Km and Jmax) using methods known in the art, e.g., by an ATPase assay using Sf9 (Spodoptera fruigiperda) membrane vesicles expressing high levels of the selected ABC transporter. In this assay the ABC transporters remove substrates out of cells by using ATP hydrolysis as an energy source. ATP hydrolysis yields inorganic phosphate (Pi), which can be detected by a simple colorimetric reaction. The amount of Pi liberated by the transporter is proportional to the activity of the transporter. Membrane preparations containing ABC transporters show a baseline ATPase activity that varies for different transporters. […]
Efflux mediated by the human MDR1, the human MRP1 or the human MRP2 is measured by incubating the purified membrane vesicles in the absence and the presence of a stimulating agent (Verapamil [40 μM] for MDR1, NEM-GS [10 mM] for MRP1 and Probenecid [1 mM] for MRP2) with different concentrations of a drug substance [0.046, 0.137, 0.41, 1.23, 3.7, 11.1, 33.3 and 100 μM] in transport buffer at pH 7.4 at 37° C. […]
After incubating the OD is measured at 730 nm. Using a previously determined phosphate standard curve the Pi liberated [nmol/well] can be calculated. […]

[4] = 6 mg base/kg, rat plasma, oral SPP100 hemifumarate 6 mg base/kg + vehicle
[5] = 6 mg/kg, oral SPP100 6 mg base/kg + PSC833 5 mg/kg
[6] = 6 mg/kg, oral SPP100 6 mg base/kg + PSC833 12.5 mg/kg
[7] = 6 mg/kg, oral SPP100 6 mg base/kg + PSC833 25 mg/kg
[8] = 6 mg/kg, oral SPP100 6 mg base/kg + PSC833 50 mg/kg
[9] = probenecid 50 mg/kg i.v. during constant infusion of [14C]-SPP100 hemifumarate

OC[C@@H](O)[C@@H](O)[C@H](O)[C@H](O)CO [Mannitol, reference compound]
Papp A→B at 120 min (in vitro): < 0.5 ×10⁻⁶ cm/s

C/C=C/C[C@@H](C)C(=O)[C@H]1C(=O)N[C@@H](C(C)C)C(=O)N(C)CC(=O)N(C)[C@@H](CC(C)C)C(=O)N[C@@H](C(C)C)C(=O)N(C)[C@@H](CC(C)C)C(=O)N[C@@H](C)C(=O)N[C@H](C)C(=O)N(C)[C@@H](CC(C)C)C(=O)N(C)[C@@H](CC(C)C)C(=O)N(C)[C@@H](C(C)C)C(=O)N1C [PSC833]
effect on 14C concentration in bile ([1]; PSC833 10 mg/kg i.v. during constant infusion of [14C]-SPP100 hemifumarate): significant decrease
effect on 14C concentration in plasma [1]: trend towards a time dependent increase
biliary clearance of [14C]-labeled compounds, % of the value obtained before administration ([1]; i.v. bolus of inhibitor during constant i.v. infusion of [14C]-SPP100 hemifumarate, PSC833 10 mg/kg): approximately 7%

CC(C)NCC(O)COc1cccc2ccccc12 (centres unmarked) [Propranolol, reference compound]
Papp A→B at 120 min (in vitro): < 15 ×10⁻⁶ cm/s

COCCCOc1cc(C[C@@H](C[C@H](N)[C@@H](O)C[C@H](C(=O)NCC(C)(C)C(N)=O)C(C)C)C(C)C)ccc1OC [SPP100, (2S,4S,5S,7S)-5-amino-4-hydroxy-2-isopropyl-7-[4-methoxy-3-(3-methoxy-propoxy)-benzyl]-8-methyl-nonanoic acid (2-carbamoyl-2-methyl-propyl)-amide hemifumarate]
Papp A→B at 120 min, 1 μM (in vitro): ~0.0333 ×10⁻⁶ cm/s
Papp A→B at 120 min, 10 µM (in vitro): ~1.17 ×10⁻⁶ cm/s
Papp B→A at 120 min, 1 µM (in vitro): ~1.67 ×10⁻⁶ cm/s
intrinsic permeability (Caco-2 cell monolayers): < 80%
Cmax [2, 4]: ~24.8 ng/mL
Tmax [2, 4]: 0.44 ± 0.1 h
Cmax [2, 5]: 35.7 ± 18 ng/mL
Tmax [2, 5]: 4.8 ± 1.8 h
Cmax [2, 6]: 115 ± 93 ng/mL
Tmax [2, 6]: 4.95 ± 4.2 h
Cmax [2, 7]: 81.4 ± 19 ng/mL
Tmax [2, 7]: 15.2 ± 18 h
Cmax [2, 8]: 26.7 ± 18 ng/mL
Tmax [2, 8]: 3.06 ± 1.9 h
dose-normalized AUC(0-tlast), times higher than in the vehicle group ([2]; oral SPP100 6 mg base/kg + PSC833 5 mg/kg): about 23 times
dose-normalized AUC(0-tlast), times higher than in the vehicle group ([2]; oral SPP100 6 mg base/kg + PSC833 12.5 mg/kg): ~69 times
dose-normalized AUC(0-tlast), times higher than in the vehicle group ([2]; oral SPP100 6 mg base/kg + PSC833 25 mg/kg): ~76 times
dose-normalized AUC(0-tlast), times higher than in the vehicle group ([2]; oral SPP100 6 mg base/kg + PSC833 50 mg/kg): ~17 times
increase of dose-normalized AUC(0-tlast) compared to control group solely dosed with SPP100 ([2]; orally dosed rats, in the presence of PSC833): about 70 fold
dose-normalized AUC(0-tlast) ([2]; rat plasma, oral SPP100 hemifumarate 6 mg base/kg + vehicle): 2.38±3.4 (ng*h/mL)/(mg/kg)

CCCN(CCC)S(=O)(=O)c1ccc(C(=O)O)cc1 [probenecid]
effect on 14C concentration in plasma [1]: no effect
biliary clearance before and after administration [1, 9]: similar
decrease of the [14C] concentration in bile vs value prior to administration [1, 9]: about 40%

human MDR1 (Homo sapiens)
Km [3]: 3 µM
